The target in one experiment is Carbonic anhydrase 9 (Homo sapiens, UniProt Q16790). In words: Inhibition of recombinant human carbonic anhydrase 9 by stopped flow CO2 hydrase assay.
A further experiment deals with Carbonic anhydrase 2 (Homo sapiens, UniProt P00918). In words: Inhibition of recombinant human carbonic anhydrase 2 by stopped flow CO2 hydrase assay.
A further experiment deals with Carbonic anhydrase 1 (Homo sapiens, UniProt P00915). As to the kind of experiment: Inhibition of recombinant human carbonic anhydrase 1 by stopped flow CO2 hydrase assay.
Chain of Carbonic anhydrase 1 (P00915 whole entry): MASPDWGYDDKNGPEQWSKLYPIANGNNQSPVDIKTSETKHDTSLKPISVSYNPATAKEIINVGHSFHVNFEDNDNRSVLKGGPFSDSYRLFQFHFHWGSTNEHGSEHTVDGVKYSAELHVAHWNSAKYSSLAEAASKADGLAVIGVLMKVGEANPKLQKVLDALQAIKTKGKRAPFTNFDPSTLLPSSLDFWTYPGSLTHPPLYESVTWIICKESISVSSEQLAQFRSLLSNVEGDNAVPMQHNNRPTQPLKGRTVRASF
For the next experiment, the target named is Carbonic anhydrase 13 (Homo sapiens, UniProt Q8N1Q1). In words: Inhibition of recombinant human carbonic anhydrase 13 by stopped flow CO2 hydrase assay.
Chain of Carbonic anhydrase 13 (Q8N1Q1 whole entry): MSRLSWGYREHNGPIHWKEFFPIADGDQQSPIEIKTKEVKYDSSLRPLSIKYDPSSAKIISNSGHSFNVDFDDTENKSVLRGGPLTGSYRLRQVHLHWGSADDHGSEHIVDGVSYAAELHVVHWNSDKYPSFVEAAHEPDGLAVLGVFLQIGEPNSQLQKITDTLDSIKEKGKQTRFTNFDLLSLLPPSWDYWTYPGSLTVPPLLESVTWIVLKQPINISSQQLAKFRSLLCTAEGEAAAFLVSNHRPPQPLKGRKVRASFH

Turning to `NS(=O)(=O)c1cccc(-c2nnc(-c3ccc(Cl)cc3)o2)c1`, the Ki on Carbonic anhydrase 9 worked out at 0.0545 µM.

`Cc1ccc(-c2nnc(-c3ccccc3)o2)cc1S(N)(=O)=O`: the Ki at Carbonic anhydrase 9, at Carbonic anhydrase 2, on Carbonic anhydrase 1 and on Carbonic anhydrase 13 was above 10 µM throughout.

Consider `COc1ccc(-c2nnc(-c3ccc(C)c(S(N)(=O)=O)c3)o2)c(OC)c1`, for which the Ki on Carbonic anhydrase 9, at Carbonic anhydrase 2, on Carbonic anhydrase 1 and on Carbonic anhydrase 13 was above 10 µM each time.

Regarding `COc1ccc(-c2nnc(-c3ccccc3)o2)cc1S(N)(=O)=O`, the Ki at Carbonic anhydrase 9, on Carbonic anhydrase 2, on Carbonic anhydrase 1 and at Carbonic anhydrase 13 was above 10 µM in each case.

For the compound `Cc1ccc(-c2nnc(-c3ccc(Cl)cc3Cl)o2)cc1S(N)(=O)=O`, the Ki on Carbonic anhydrase 9, at Carbonic anhydrase 2, at Carbonic anhydrase 1 and at Carbonic anhydrase 13 was above 10 µM throughout.

`COc1cc(-c2nnc(-c3cccc(S(N)(=O)=O)c3)o2)cc(OC)c1OC`: at Carbonic anhydrase 9, the Ki turned out to be 0.0683 µM.

`COc1ccc(OC)c(-c2nnc(-c3cccc(S(N)(=O)=O)c3)o2)c1`: the Ki at Carbonic anhydrase 9 was determined as 0.0768 µM.

Turning to `Cc1ccc(-c2nnc(-c3ccc(C#N)cc3)o2)cc1S(N)(=O)=O`, the Ki at Carbonic anhydrase 9, at Carbonic anhydrase 2, on Carbonic anhydrase 1 and on Carbonic anhydrase 13 was above 10 µM each time.

Consider `NS(=O)(=O)c1cccc(-c2nnc(-c3ccc(Cl)cc3Cl)o2)c1`, for which the Ki on Carbonic anhydrase 9 stood at 0.0763 µM.

Take `N#Cc1ccc(-c2nnc(-c3cccc(S(N)(=O)=O)c3)o2)cc1`: the Ki on Carbonic anhydrase 9 turned out to be 0.0763 µM.

For the compound `NS(=O)(=O)c1cccc(-c2nnc(-c3ccccc3)o2)c1`, the Ki at Carbonic anhydrase 9 was 0.108 µM.

Regarding `COc1ccc(-c2nnc(-c3cccc([N+](=O)[O-])c3)o2)cc1S(N)(=O)=O`, the Ki on Carbonic anhydrase 9, on Carbonic anhydrase 2, on Carbonic anhydrase 1 and at Carbonic anhydrase 13 was above 10 µM each time.

For `Cc1ccc(-c2nnc(-c3ccc(Cl)cc3)o2)cc1S(N)(=O)=O`, the Ki on Carbonic anhydrase 9, on Carbonic anhydrase 2, on Carbonic anhydrase 1 and at Carbonic anhydrase 13 was above 10 µM in each case.

With `NS(=O)(=O)c1cccc(-c2nnc(-c3cccc([N+](=O)[O-])c3)o2)c1`, on Carbonic anhydrase 9, the Ki was found to be 0.044 µM.

On to `Cc1ccc(-c2nnc(-c3cccc([N+](=O)[O-])c3)o2)cc1S(N)(=O)=O`, for which the Ki on Carbonic anhydrase 9, at Carbonic anhydrase 2, at Carbonic anhydrase 1 and on Carbonic anhydrase 13 was above 10 µM each time.

With `NS(=O)(=O)c1cccc(-c2nnc(-c3ccc([N+](=O)[O-])cc3)o2)c1`, the Ki at Carbonic anhydrase 9 is 0.0571 µM.

In the case of `NS(=O)(=O)c1cccc(-c2nnc(-c3cccs3)o2)c1`, on Carbonic anhydrase 9, the Ki came out at 0.0853 µM.

Turning to `COc1ccc(-c2nnc(-c3ccc(OC)c(S(N)(=O)=O)c3)o2)c(OC)c1`, the Ki on Carbonic anhydrase 9, at Carbonic anhydrase 2, at Carbonic anhydrase 1 and on Carbonic anhydrase 13 was above 10 µM in each case.

Take `COc1ccc(-c2nnc(-c3cccc(S(N)(=O)=O)c3)o2)c(OC)c1`: the Ki at Carbonic anhydrase 9 came to 0.0822 µM.

For orientation: Ki means the dissociation constant of the complex between target and ligand, obtained from inhibition or displacement.
